Consider two sequences from article PMC11279616 (Pharmaceuticals, 2024).

Data set [1] has as its system Vero E6 cells. Format: cell-based, African green monkey. The following applies: at 50 and at 100 μg, MTS. The method, then:
For the MTS assay, VERO E6 cells (2 × 10^4/well) were seeded into 96-well plates in triplicate and cultured in growth medium. Then, different peptide concentrations were added, and the viability was tested every day for three consecutive days using the CellTiter […] Aqueous One Solution Cell Proliferation Assay kit (CTB169; Promega, Fitchburg, WI, USA) following the manufacturers manual. Untreated cells were used for value normalizations.

Data set [2] concerns Vero E6 cells. The note with it: 100 µg.

Where no end group is shown, it is not given here.

As for VTNATAPNTDVSVSLSMILQTISASI [pep6], the concentration/toxicity ratio result in the data set on Vero E6 cells [1] is “best concentration/toxicity ratio”.

Turning to “VVNTDSLSSVTNATSIQITAPASMLI [DPP4_270–295]”, the toxic effect result in the data set on Vero E6 cells [2] was “without observing any toxic effect”.
